Data: patent US8653050B2, “Phenyl bicyclic methyl amine derivatives as sphingosine-1 phosphate receptors modulators” (Allergan, Inc., priority 2011, dated 2014)

Experiments:
[1] = tested on: female C57BL6 mice; test: Lymphopenia assay in mice (in vivo blood lymphocyte depletion); conditions: subcutaneous, 10 mg/Kg or 2 mg/Kg, 24 hours after dosing, FIG. 1 / FIG. 2
Method: Test drugs are prepared in a solution containing 3% (w/v) 2-hydroxy propyl R-cyclodextrin (HPBCD) and 1% DMSO to a final concentration of 1 mg/ml, and subcutaneously injected to female C57BL6 mice (CHARLES RIVERS) weighing 20-25 g at the dose of 10 mg/Kg. Blood samples are obtained by puncturing the submandibular skin with a Goldenrod animal lancet at 5, 24, 48, 72, and 96 hrs post drug application. Blood is collected into microvettes (SARSTEDT) containing EDTA tripotassium salt. Lymphocytes in blood samples are counted using a HEMAVET Multispecies Hematology System, HEMAVET HV950FS (Drew Scientific Inc.). (Hale, J. et al Bioorg. & Med. Chem. Lett. 14 (2004) 3351).
A lymphopenia assay in mice, as previously described, was employed to measure the in vivo blood lymphocyte depletion after dosing Compounds 9, 10, 11 and 14, (FIG. 1) and Compounds 15, 17, 18 and 20, (FIG. 2). These S1P agonists (or modulators) are useful for S1P-related diseases, and exemplified by the lymphopenia in vivo response. In general, test compounds were prepared in a solution containing 3% (w/v) 2-hydroxy propyl β-cyclodextrin (HPBCD) and 1% DMSO to a final concentration of 1 mg/ml, and subcutaneously injected to female C57BL6 mice (CHARLES RIVERS) weighing 20-25 g at the dose of 10 mg/Kg or 2 mg/Kg. Blood samples were obtained by puncturing the submandibular skin with a Goldenrod animal lancet at 24, 48, 72 and 96 hrs post drug application. Blood was collected into microvettes (SARSTEDT) containing EDTA tripotassium salt. Lymphocytes in blood samples were counted using a HEMAVET Multispecies Hematology System, HEMAVET HV950FS (Drew Scientific Inc.).

[2] = target: T1, human S1P1 receptor (Homo sapiens, UniProt P21453); test: GTP γ35S binding assay for S1P1 activity; assay type: biochemical; conditions: membranes of cells stably expressing S1P1 receptor
T1 construct: expressed in transfected cells; membranes used
T1 sequence (P21453 whole entry): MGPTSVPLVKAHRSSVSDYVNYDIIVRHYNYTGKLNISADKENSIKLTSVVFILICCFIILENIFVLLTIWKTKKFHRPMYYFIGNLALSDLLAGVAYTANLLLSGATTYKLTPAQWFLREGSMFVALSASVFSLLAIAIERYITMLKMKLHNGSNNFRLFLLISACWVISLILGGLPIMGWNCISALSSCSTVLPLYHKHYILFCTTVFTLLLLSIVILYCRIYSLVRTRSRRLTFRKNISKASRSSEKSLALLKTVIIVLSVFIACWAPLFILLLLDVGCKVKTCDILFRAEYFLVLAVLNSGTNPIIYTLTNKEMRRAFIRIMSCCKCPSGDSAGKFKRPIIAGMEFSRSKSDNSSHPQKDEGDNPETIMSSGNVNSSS
Method: Compounds were synthesized and tested for S1P1 activity using the GTP γ^35S binding assay. These compounds may be assessed for their ability to activate or block activation of the human S1P1 receptor in cells stably expressing the S1P1 receptor.
GTP γ^35S binding was measured in the medium containing (mM) HEPES 25, pH 7.4, MgCl2 10, NaCl 100, dithitothreitol 0.5, digitonin 0.003%, 0.2 nM GTP γ^35S, and 5 μg membrane protein in a volume of 150 μl. Test compounds were included in the concentration range from 0.08 to 5,000 nM unless indicated otherwise. Membranes were incubated with 100 μM 5′-adenylylimmidodiphosphate for 30 min, and subsequently with 10 μM GDP for 10 min on ice. Drug solutions and membrane were mixed, and then reactions were initiated by adding GTP γ^35S and continued for 30 min at 25° C. Reaction mixtures were filtered over Whatman GF/B filters under vacuum, and washed three times with 3 mL of ice-cold buffer (HEPES 25, pH7.4, MgCl2 10 and NaCl 100). Filters were dried and mixed with scintillant, and counted for ^35S activity using a β-counter. Agonist-induced GTP γ^35S binding was obtained by subtracting that in the absence of agonist. Binding data were analyzed using a non-linear regression method. In case of antagonist assay, the reaction mixture contained 10 nM […] in the presence of test antagonist at concentrations ranging from 0.08 to 5000 nM.

Compound | lymphocyte count after 24 hours [1] | EC50 [2] [nM]
CCCCCCCc1ccc(-c2ccc(CNCCCP(=O)(O)O)c3ncccc23)cc1F [Compound 10, [3-({[5-(3-fluoro-4-heptylphenyl)quinolin-8-yl]methyl}amino)propyl]phosphonic acid] | lowered lymphocyte count | 223
O=P(O)(O)CCCNCc1ccc(-c2ccc(CCCc3ccccc3)cc2)c2cccnc12 [Compound 6, {3-[({5-[4-(3-phenylpropyl)phenyl]quinolin-8-yl}methyl)amino]propyl}phosphonic acid] |  | 8.3
CCCCC(CC)CCc1ccc(-c2ccc(CNCCCP(=O)(O)O)c3ncccc23)cc1 (centres unmarked) [Compound 11, {3-[({5-[4-(3-ethylheptyl)phenyl]quinolin-8-yl}methyl)amino]propyl}phosphonic acid] | lowered lymphocyte count | 6.97
Cc1ccccc1CCCc1ccc(-c2ccc(CNCCCP(=O)(O)O)c3ncccc23)cc1 [Compound 8, (3-{[(5-{4-[3-(2-methylphenyl)propyl]phenyl}quinolin-8-yl)methyl]amino}propyl)phosphonic acid] |  | 3.8
CCCCCCc1ccc(-c2ccc(CNCCOP(=O)(O)O)c3ncccc23)cc1 [Compound 5, 2-({[5-(4-hexylphenyl)quinolin-8-yl]methyl}amino)ethyl dihydrogen phosphate] |  | 31.1
CCCCC(CC)CCc1ccc(-c2ccc(CNCCOP(=O)(O)O)c3ncccc23)cc1F (centres unmarked) [Compound 23, 2-[({5-[4-(3-ethylheptyl)-3-fluorophenyl]quinolin-8-yl}methyl)amino]ethyl dihydrogen phosphate] |  | 2.63
CCCCCCCCc1ccc(-c2ccc(CNCCCP(=O)(O)O)c3ncccc23)cc1 [Compound 12, [3-({[5-(4-octylphenyl)quinolin-8-yl]methyl}amino)propyl]phosphonic acid] |  | 11.2
CCCCCCc1ccc(-c2ccc(CNCCCP(=O)(O)O)c3ncccc23)cc1 [Compound 4, [3-({[5-(4-hexylphenyl)quinolin-8-yl]methyl}amino)propyl]phosphonic acid] |  | 0.6
CCCCC(CC)CCc1ccc(-c2ccc(CNCCO)c3ncccc23)cc1F (centres unmarked) [Compound 22, 2-[({5-[4-(3-ethylheptyl)-3-fluorophenyl]quinolin-8-yl}methyl)amino]ethanol] |  | 137
CCCCCCc1ccc(-c2ccc(CNCCC(=O)O)c3ncccc23)cc1 [Compound 7, 3-({[5-(4-hexylphenyl)quinolin-8-yl]methyl}amino)propanoic acid] |  | 872
CCCCC(CC)CCc1ccc(-c2ccc(CNCCCP(=O)(O)O)c3ncccc23)cc1F (centres unmarked) [Compound 19, {3-[({5-[4-(3-ethylheptyl)-3-fluorophenyl]quinolin-8-yl}methyl)amino]propyl}phosphonic acid] |  | 2.5
CCCCCCc1ccc(-c2ccc(CNCCCP(=O)(O)O)c3ncccc23)cc1F [Compound 13, [3-({[5-(3-fluoro-4-hexylphenyl)quinolin-8-yl]methyl}amino)propyl]phosphonic acid] |  | 1.3
O=P(O)(O)CCCNCc1ccc(-c2ccc(CCCc3ccccc3)c(F)c2)c2cccnc12 [Compound 2, {3-[({5-[3-fluoro-4-(3-phenylpropyl)phenyl]quinolin-8-yl}methyl)amino]propyl}phosphonic acid] |  | 5.95
CCCCCCCc1ccc(-c2ccc(CNCCCP(=O)(O)O)c3ncccc23)c(F)c1 [Compound 9, [3-({[5-(2-fluoro-4-heptylphenyl)quinolin-8-yl]methyl}amino)propyl]phosphonic acid] | lowered lymphocyte count | 13.6
Cc1ccccc1CCCc1ccc(-c2ccc(CNCCCP(=O)(O)O)c3ncccc23)cc1F [Compound 16, (3-{[(5-{3-fluoro-4-[3-(2-methylphenyl)propyl]phenyl}quinolin-8-yl)methyl]amino}propyl)phosphonic acid] |  | 1
Cc1cccc(CCCc2ccc(-c3ccc(CNCCCP(=O)(O)O)c4ncccc34)cc2F)c1 [Compound 17, (3-{[(5-{3-fluoro-4-[3-(3-methylphenyl)propyl]phenyl}quinolin-8-yl)methyl]amino}propyl)phosphonic acid] | lowered lymphocyte count | 0.3
CCCCCCc1ccc(-c2ccc(CNCCCP(=O)(O)O)c3ccccc23)cc1 [Compound 3, [3-({[4-(4-hexylphenyl)-1-naphthyl]methyl}amino)propyl]phosphonic acid] |  | 54.2
O=P(O)(O)CCCNCc1ccc(-c2ccc(CCC3CCCCC3)c(F)c2)c2cccnc12 [Compound 20, {3-[({5-[4-(2-cyclohexylethyl)-3-fluorophenyl]quinolin-8-yl}methyl)amino]propyl}phosphonic acid] | lowered lymphocyte count | 1.68
Cc1ccc(CCCc2ccc(-c3ccc(CNCCCP(=O)(O)O)c4ncccc34)cc2F)cc1 [Compound 18, (3-{[(5-{3-fluoro-4-[3-(4-methylphenyl)propyl]phenyl}quinolin-8-yl)methyl]amino}propyl)phosphonic acid] | lowered lymphocyte count | 1
O=P(O)(O)CCCNCc1ccc(-c2ccc(CCC3CCCCC3)cc2)c2cccnc12 [Compound 14, {3-[({5-[4-(2-cyclohexylethyl)phenyl]quinolin-8-yl}methyl)amino]propyl}phosphonic acid] | lowered lymphocyte count | 1.5
CCCCCCc1ccc(-c2ccc(CNCCO)c3ncccc23)cc1 [Compound 15, 2-({[5-(4-hexylphenyl)quinolin-8-yl]methyl}amino)ethanol] | lowered lymphocyte count | 192
